Test results: ChEMBL document CHEMBL3044541, “Control of crown rot-causing fungal pathogens of banana by inorganic salts and a surfactant” (Crop Prot, 2007)
Active and inactive are the calls of the source. No cut-off for these calls is given here.

Columns and labels:
Type in all cases: functional
Lasiodiplodia theobromae [1] = assay: Growth inhibition of Lasiodiplodia theobromae assessed as concentration required for inhibition of mycelial growth incubated for 15 min followed by compound washout measured after 7 days in absence of surfactant APSA 80
Lasiodiplodia theobromae [2] = assay: Growth inhibition of Lasiodiplodia theobromae assessed as concentration required for inhibition of mycelial growth incubated for 15 min followed by compound washout measured after 7 days in presence of surfactant APSA 80
Fusarium verticillioides [3] = assay: Antifungal activity against Fusarium verticillioides infected Cavendish banana fruit assessed as reduction in crown rot incubated for 15 min followed by compound washout measured after 3 weeks in presence of surfactant APSA 80 relative to control; parameters: scale not given: the % may be the effect or the level left; details: pooled result: one value given for 4 cell lines, strains, targets or settings
Fusarium verticillioides [4] = assay: Antifungal activity against Fusarium verticillioides infected Cavendish banana fruit assessed as reduction in crown rot incubated for 15 min followed by compound washout measured after 3 weeks in absence of surfactant APSA 80 relative to control; parameters: scale not given: the % may be the effect or the level left; details: pooled result: one value given for 4 cell lines, strains, targets or settings
Fusarium verticillioides [5] = assay: Antifungal activity against Fusarium verticillioides infected Cavendish banana fruit assessed as reduction in crown rot incubated for 15 min followed by compound washout measured after 2 weeks in presence of surfactant APSA 80 relative to control; parameters: scale not given: the % may be the effect or the level left
Colletotrichum musae [6] = assay: Antifungal activity against Colletotrichum musae infected Cavendish banana fruit assessed as reduction in crown rot incubated for 15 min followed by compound washout measured after 2 weeks in presence of surfactant APSA 80 relative to control; parameters: scale not given: the % may be the effect or the level left
Thielaviopsis paradoxa [7] = assay: Antifungal activity against Ceratocystis paradoxa infected Cavendish banana fruit assessed as reduction in crown rot incubated for 15 min followed by compound washout measured after 2 weeks in presence of surfactant APSA 80 relative to control; parameters: scale not given: the % may be the effect or the level left
Lasiodiplodia theobromae [8] = assay: Antifungal activity against Lasiodiplodia theobromae infected Cavendish banana fruit assessed as reduction in crown rot incubated for 15 min followed by compound washout measured after 2 weeks in presence of surfactant APSA 80 relative to control; parameters: scale not given: the % may be the effect or the level left
Fusarium verticillioides [9] = assay: Antifungal activity against Fusarium verticillioides infected Cavendish banana fruit assessed as reduction in crown rot incubated for 15 min followed by compound washout measured after 2 weeks in absence of surfactant APSA 80 relative to control; parameters: scale not given: the % may be the effect or the level left
Colletotrichum musae [10] = assay: Antifungal activity against Colletotrichum musae infected Cavendish banana fruit assessed as reduction in crown rot incubated for 15 min followed by compound washout measured after 2 weeks in absence of surfactant APSA 80 relative to control; parameters: scale not given: the % may be the effect or the level left
Thielaviopsis paradoxa [11] = assay: Antifungal activity against Ceratocystis paradoxa infected Cavendish banana fruit assessed as reduction in crown rot incubated for 15 min followed by compound washout measured after 2 weeks in absence of surfactant APSA 80 relative to control; parameters: scale not given: the % may be the effect or the level left
Lasiodiplodia theobromae [12] = assay: Antifungal activity against Lasiodiplodia theobromae infected Cavendish banana fruit assessed as reduction in crown rot incubated for 15 min followed by compound washout measured after 2 weeks in absence of surfactant APSA 80 relative to control; parameters: scale not given: the % may be the effect or the level left
Fusarium verticillioides [13] = assay: Antifungal activity against Fusarium verticillioides infected Cavendish banana fruit assessed as reduction in crown rot incubated for 15 min followed by compound washout measured after 1 week in presence of surfactant APSA 80 relative to control; parameters: scale not given: the % may be the effect or the level left
Colletotrichum musae [14] = assay: Antifungal activity against Colletotrichum musae infected Cavendish banana fruit assessed as reduction in crown rot incubated for 15 min followed by compound washout measured after 1 week in presence of surfactant APSA 80 relative to control; parameters: scale not given: the % may be the effect or the level left
Thielaviopsis paradoxa [15] = assay: Antifungal activity against Ceratocystis paradoxa infected Cavendish banana fruit assessed as reduction in crown rot incubated for 15 min followed by compound washout measured after 1 week in presence of surfactant APSA 80 relative to control; parameters: scale not given: the % may be the effect or the level left
Lasiodiplodia theobromae [16] = assay: Antifungal activity against Lasiodiplodia theobromae infected Cavendish banana fruit assessed as reduction in crown rot incubated for 15 min followed by compound washout measured after 1 week in presence of surfactant APSA 80 relative to control; parameters: scale not given: the % may be the effect or the level left
Fusarium verticillioides [17] = assay: Antifungal activity against Fusarium verticillioides infected Cavendish banana fruit assessed as reduction in crown rot incubated for 15 min followed by compound washout measured after 1 week in absence of surfactant APSA 80 relative to control; parameters: scale not given: the % may be the effect or the level left
Colletotrichum musae [18] = assay: Antifungal activity against Colletotrichum musae infected Cavendish banana fruit assessed as reduction in crown rot incubated for 15 min followed by compound washout measured after 1 week in absence of surfactant APSA 80 relative to control; parameters: scale not given: the % may be the effect or the level left
Thielaviopsis paradoxa [19] = assay: Antifungal activity against Ceratocystis paradoxa infected Cavendish banana fruit assessed as reduction in crown rot incubated for 15 min followed by compound washout measured after 1 week in absence of surfactant APSA 80 relative to control; parameters: scale not given: the % may be the effect or the level left
Lasiodiplodia theobromae [20] = assay: Antifungal activity against Lasiodiplodia theobromae infected Cavendish banana fruit assessed as reduction in crown rot incubated for 15 min followed by compound washout measured after 1 week in absence of surfactant APSA 80 relative to control; parameters: scale not given: the % may be the effect or the level left
Fusarium verticillioides [21] = assay: Antifungal activity against Fusarium verticillioides assessed as reduction in colony diameter at 10 to 160 g/l incubated for 15 min followed by compound washout measured after 7 days in absence of surfactant APSA 80 relative to control; parameters: scale not given: the % may be the effect or the level left
Colletotrichum musae [22] = assay: Antifungal activity against Colletotrichum musae assessed as reduction in colony diameter at 10 to 160 g/l incubated for 15 min followed by compound washout measured after 7 days in absence of surfactant APSA 80 relative to control; parameters: scale not given: the % may be the effect or the level left
Thielaviopsis paradoxa [23] = assay: Antifungal activity against Ceratocystis paradoxa assessed as reduction in colony diameter at 10 to 160 g/l incubated for 15 min followed by compound washout measured after 7 days in absence of surfactant APSA 80 relative to control; parameters: scale not given: the % may be the effect or the level left
Lasiodiplodia theobromae [24] = assay: Antifungal activity against Lasiodiplodia theobromae assessed as reduction in colony diameter at 10 to 160 g/l incubated for 15 min followed by compound washout measured after 7 days in absence of surfactant APSA 80 relative to control; parameters: scale not given: the % may be the effect or the level left
Fusarium verticillioides [25] = assay: Antifungal activity against Fusarium verticillioides assessed as reduction in colony diameter at 10 to 160 g/l incubated for 15 min followed by compound washout measured after 7 days in presence of surfactant APSA 80 relative to control; parameters: scale not given: the % may be the effect or the level left
Colletotrichum musae [26] = assay: Antifungal activity against Colletotrichum musae assessed as reduction in colony diameter at 10 to 160 g/l incubated for 15 min followed by compound washout measured after 7 days in presence of surfactant APSA 80 relative to control; parameters: scale not given: the % may be the effect or the level left
Thielaviopsis paradoxa [27] = assay: Antifungal activity against Ceratocystis paradoxa assessed as reduction in colony diameter at 10 to 160 g/l incubated for 15 min followed by compound washout measured after 7 days in presence of surfactant APSA 80 relative to control; parameters: scale not given: the % may be the effect or the level left
Lasiodiplodia theobromae [28] = assay: Antifungal activity against Lasiodiplodia theobromae assessed as reduction in colony diameter at 10 to 160 g/l incubated for 15 min followed by compound washout measured after 7 days in presence of surfactant APSA 80 relative to control; parameters: scale not given: the % may be the effect or the level left
Fusarium verticillioides [29] = assay: Growth inhibition of Fusarium verticillioides assessed as inhibition of mycelial growth up to 160 g/l incubated for 15 min followed by compound washout measured after 7 days in absence of surfactant APSA 80
Colletotrichum musae [30] = assay: Growth inhibition of Colletotrichum musae assessed as inhibition of mycelial growth up to 160 g/l incubated for 15 min followed by compound washout measured after 7 days in absence of surfactant APSA 80

## O=C([O-])O.[Na+] [SODIUM BICARBONATE]
Lasiodiplodia theobromae [1]
  Activity: 150 g/L
Lasiodiplodia theobromae [2]
  Activity: 100 g/L
Fusarium verticillioides [3]
  Activity: 12%
Fusarium verticillioides [4]
  Activity: 58%
Fusarium verticillioides [5]
  Activity: 0%
Colletotrichum musae [6]
  Activity: 0%
Thielaviopsis paradoxa [7]
  Activity: 0%
Lasiodiplodia theobromae [8]
  Activity: 0%
Fusarium verticillioides [9]
  Activity: 25%
Colletotrichum musae [10]
  Activity: 25%
Thielaviopsis paradoxa [11]
  Activity: 25%
Lasiodiplodia theobromae [12]
  Activity: 25%
Fusarium verticillioides [13]
  Activity: 0%
Colletotrichum musae [14]
  Activity: 0%
Thielaviopsis paradoxa [15]
  Activity: 0%
Lasiodiplodia theobromae [16]
  Activity: 0%
Fusarium verticillioides [17]
  Activity: 0%
Colletotrichum musae [18]
  Activity: 0%
Thielaviopsis paradoxa [19]
  Activity: 0%
Lasiodiplodia theobromae [20]
  Activity: 0%
Fusarium verticillioides [21]
  Activity: 0%
Colletotrichum musae [22]
  Activity: 18%
Thielaviopsis paradoxa [23]
  Activity: 36%
Lasiodiplodia theobromae [24]
  Activity: 46%
Fusarium verticillioides [25]
  Activity: 50%
Colletotrichum musae [26]
  Activity: 80%
Thielaviopsis paradoxa [27]
  Activity: 76%
Lasiodiplodia theobromae [28]
  Activity: 72%

## O=C([O-])[O-].[Na+].[Na+]
Fusarium verticillioides [29]
  Activity: inactive
Colletotrichum musae [30]
  Activity: inactive
